Broadly, the EC50 is the concentration that produces a half-maximal response.

Structures can show the parent of a compound that is named as a salt.

One experiment concerns the target T1, calcium receptor (Homo sapiens, UniProt P41180).
T1 sequence (P41180 20-1078): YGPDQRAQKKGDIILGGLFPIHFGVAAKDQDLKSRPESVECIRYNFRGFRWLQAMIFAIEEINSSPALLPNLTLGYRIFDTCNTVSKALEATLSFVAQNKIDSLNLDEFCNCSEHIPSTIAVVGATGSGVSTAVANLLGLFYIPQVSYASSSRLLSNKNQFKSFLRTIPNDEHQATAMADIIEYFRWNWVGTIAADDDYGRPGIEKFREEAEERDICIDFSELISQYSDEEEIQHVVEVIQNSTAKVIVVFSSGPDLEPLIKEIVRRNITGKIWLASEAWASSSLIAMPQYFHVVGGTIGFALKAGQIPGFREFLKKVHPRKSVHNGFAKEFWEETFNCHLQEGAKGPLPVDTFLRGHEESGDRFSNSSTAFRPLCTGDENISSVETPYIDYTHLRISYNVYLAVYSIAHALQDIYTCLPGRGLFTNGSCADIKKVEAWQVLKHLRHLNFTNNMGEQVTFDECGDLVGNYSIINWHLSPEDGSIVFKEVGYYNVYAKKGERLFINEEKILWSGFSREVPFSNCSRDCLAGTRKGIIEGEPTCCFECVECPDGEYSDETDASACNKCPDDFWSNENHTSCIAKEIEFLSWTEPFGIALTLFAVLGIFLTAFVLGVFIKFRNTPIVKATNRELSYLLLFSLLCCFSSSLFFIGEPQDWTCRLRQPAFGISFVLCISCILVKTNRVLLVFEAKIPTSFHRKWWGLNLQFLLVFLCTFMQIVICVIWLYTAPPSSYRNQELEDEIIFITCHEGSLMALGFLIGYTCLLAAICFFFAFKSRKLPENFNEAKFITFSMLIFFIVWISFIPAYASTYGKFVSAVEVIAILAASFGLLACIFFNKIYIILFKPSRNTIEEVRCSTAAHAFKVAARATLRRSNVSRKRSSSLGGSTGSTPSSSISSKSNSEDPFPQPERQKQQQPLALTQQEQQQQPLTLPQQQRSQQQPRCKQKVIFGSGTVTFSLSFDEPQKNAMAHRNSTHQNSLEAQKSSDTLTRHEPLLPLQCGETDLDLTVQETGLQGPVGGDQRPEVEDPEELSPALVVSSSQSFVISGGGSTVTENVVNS
Description: EC50 (concentration evoking a half-maximal effect) at an inorganic ion receptor / calcium receptor. In kind it is cell-based.
Details: not given
The source says:
The EC50 is the concentration of the molecule which evokes a half-maximal effect. The IC50 is the concentration of molecule which causes a half-maximal blocking effect. The EC50 or IC50 can be determined by assaying one or more of the activities of an inorganic ion at an inorganic ion receptor. Preferably, such assays are specific to a particular calcium receptor. For example, assays which measure hormones whose production or secretion is modulated by a particular inorganic ion receptor are preferred.
Nemeth et al., PCT/US93/01642, International Publication Number WO 94/18959. For example, poly(A)^+ mRNA can be obtained from cells expressing a calcium receptor, such as a parathyroid cell, bone osteoclast, juxtaglomerular kidney cell, proximal tubule kidney cell, distal tubule kidney cell, cell of the thick ascending limb of Henle's loop and/or collecting duct, keratinocyte in the epidermis, parafollicular cell in the thyroid (C-cell), intestinal cell, central nervous cell, peripheral nervous system cell, trophoblast in the placenta, platelet, vascular smooth muscle cell, cardiac atrial cell, gastrin-secreting cell, glucagon-secreting cell, kidney mesangial cell, mammary cell, beta cell, fat/adipose cell, immune cell, and GI tract cell. Preferably, the nucleic acid is from a parathyroid cell, C-cell, or osteoclast. More preferably, the nucleic acid encodes a calcium receptor and is present on a plasmid or vector.
As for `C[C@@H](NCCCc1ccccc1Cl)c1cccc2ccccc12` [Compound 12Z, N-3-(2-chlorophenyl)-1-propyl-(R)-1-(1-naphthyl)ethylamine hydrochloride], the EC50 was less than 5 µM.

Staying with this experiment, now noted: concentration of the molecule which evokes a half-maximal effect; preferred agents; cell type and assay read-out not stated; read-out: EC50.
Take `CSc1cccc(C(C)NCCCc2ccccc2)c1` (racemic) [Compound 8J, N-(3-phenylpropyl)-1-(3-thiomethylphenyl)ethylamine hydrochloride]: the EC50 was less than 5 µM.
On the same count and under the same terms, as for `COc1cccc([C@@H](C)NCCCc2ccccc2OC)c1` [Compound 8U, N-3-(2-methoxyphenyl)-1-propyl-(R)-3-methoxy-α-methylbenzylamine hydrochloride], the figure is less than 5 µM; as for `C[C@@H](N[C@H](C)c1cccc2ccccc12)c1ccc2ccccc2c1` [Compound 9R, (R)-N-(1-(2-naphthyl)ethyl)-(R)-1-(1-naphthyl)ethylamine hydrochloride], less than 5 µM.
Same read-out and setting: as for `CC(C)c1ccc(CN[C@H](C)c2cccc3ccccc23)cc1` [Compound 11X, N-(4-Isopropylbenzyl)-(R)-1-(1-naphthyl)ethylamine hydrochloride], the figure is less than 5 µM; as for `COc1cccc([C@@H](C)NCCCc2ccccc2C)c1` [Compound 12U, N-3-(2-methylphenyl)-1-propyl-(R)-3-methoxy-α-methylbenzylamine hydrochloride], less than 5 µM.
The same measure, in the same setting: as for `COc1cccc([C@@H](C)NCCCc2cccc(C)c2)c1` [Compound 12V, N-3-(3-methylphenyl)-1-propyl-(R)-3-methoxy-α-methylbenzylamine hydrochloride], the figure is less than 5 µM; as for `COc1ccc([C@@H](C)N[C@H](C)c2cccc3ccccc23)cc1` [Compound 14U, (R)-N-(1-(4-methoxyphenyl)ethyl)-(R)-1-(1-naphthyl)ethylamine hydrochloride], less than 5 µM.
As for `COc1ccc(CN[C@H](C)c2cccc3ccccc23)cc1Cl` [Compound 16M, N-(3-chloro-4-methoxybenzyl)-(R)-1-(1-naphthyl)ethylamine hydrochloride], the EC50 is less than 5 µM.
On the same count and under the same terms, as for `COc1ccc([C@@H](C)N[C@H](C)c2cccc3ccccc23)cc1C` [Compound 16P, (R)-N-(1-(4-Methoxy-3-methylphenyl)ethyl)-(R)-1-(1-naphthyl)ethylamine hydrochloride], the figure is less than 5 µM.

These data come from patent US6001884A, “Calcium receptor-active molecules” (NPS Pharmaceuticals, Inc., priority 1995, dated 1999).
